The values below come from US7652153B2, “Caspase inhibitors and uses thereof” (Vertex Pharmaceuticals Incorporated, priority 2004, dated 2010).

Bounds are passed on as bounds.

The target of experiment [1] is caspase-8 (Homo sapiens, UniProt Q14790). Description: Caspase-8 enzyme inhibition (Ki, method of Margolin et al.). It counts as biochemical. The note with it: Ac-DEVD-pNA substrate 80 μM, 37° C., pH 7.5; read-out: Ki C8. The method, then: (§1) Compounds of this invention may be tested using the methods described below.
(§2) In Vitro Assays Enzyme Inhibition
(§3) Ki values for test compounds with caspase-1 and caspase-8 were obtained by the method of Margolin et al. (J. Biol. Chem., 272 pp. 7223-7228 (1997)). Other caspases may be assayed similarly (see, e.g., WO 99/47545). Assays were performed in 10 mM Tris (Sigma Corp, St Louis Mo.) pH 7.5, 1 mM Dithiothreitol (DTT, Research Organic INC, Cleveland, Ohio) and 0.1% CHAPS (Pierce, Rockford Ill.) at 37° C. For caspase-3, a solution of 8% glycerol was added to the assay buffer to improve enzyme stability. A 65 μL aliquot of the assay buffer and 5 μL aliquot of the appropriate dilutions of inhibitor in DMSO where pipetted into a 96 well plate, treated with 10 μL of caspase, then diluted in assay buffer (0.5-40 nM active protein by active site titration). A control containing DMSO but no compound was included for each determination. The plates were then incubated for 15 minutes at 37° C., before addition of the appropriate substrate (20 μL, final concentration 1-4×KM, final assay volume 100 μL) to initiate the reaction. Reaction rates were measured at 37° C. either by following the time dependant increase in absorbance at 405 nm (for the pNA substrates) or in fluorescence (Ex 390, Em 460) (for the AMC substrates). The rates obtained were plotted against inhibitor concentration and the data fit to the Morrison tight-binding equation for competitive inhibitors (Morrison, J. F., Biochem. Biophys. Acta, 185 pp. 269-286 (1969)). The substrates used for the individual assays were as follows:
Caspase-8 Ac-DEVD-pNA (Bachem, King of Prussia, Pa.) (final concentration in assay 80 μM).

In experiment [2] the target is T1, caspase-1 (Homo sapiens, UniProt P29466).
T1 sequence (P29466 120-297 limits assumed): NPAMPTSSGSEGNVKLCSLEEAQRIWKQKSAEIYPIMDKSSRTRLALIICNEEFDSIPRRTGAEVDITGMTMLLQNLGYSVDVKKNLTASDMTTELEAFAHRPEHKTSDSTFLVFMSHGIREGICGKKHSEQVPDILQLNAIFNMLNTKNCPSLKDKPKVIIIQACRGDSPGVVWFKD
T1 sequence (P29466 317-404 limits assumed): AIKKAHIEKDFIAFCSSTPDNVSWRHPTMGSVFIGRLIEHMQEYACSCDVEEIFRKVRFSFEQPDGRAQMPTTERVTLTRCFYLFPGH
Description: Caspase-1 enzyme inhibition (Ki, method of Margolin et al.). It counts as biochemical. The note with it: Suc-YVAD-pNA substrate 80 μM, 37° C., pH 7.5; read-out: Ki C1. The method, then:
as §1, §2, §3
Caspase-1 Suc-YVAD-pNA (Bachem, King of Prussia, Pa.) (final concentration in the assay 80 μM);

Chain of caspase-8 (Q14790 217-374 limits assumed, species assumed): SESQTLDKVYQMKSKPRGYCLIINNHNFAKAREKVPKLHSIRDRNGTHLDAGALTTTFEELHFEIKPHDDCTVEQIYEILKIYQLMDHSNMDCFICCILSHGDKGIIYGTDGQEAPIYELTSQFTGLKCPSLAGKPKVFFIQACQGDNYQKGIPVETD
Chain of caspase-8 (Q14790 385-479 limits assumed, species assumed): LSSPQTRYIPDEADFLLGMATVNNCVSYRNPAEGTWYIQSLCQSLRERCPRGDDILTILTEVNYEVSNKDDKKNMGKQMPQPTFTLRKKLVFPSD

Turning to `O=C[C@H](CC(=O)O)NC(=O)[C@@H]1CCCN1C(=O)[C@H](Cc1cscn1)NC(=O)c1ccccc1Cl` [II-25, (S,S,S)-(3S)-({1-[(2S)-(2-Chloro-benzoylamino)-3-thiazol-4-yl-propionyl]-pyrrolidine-(2S)-carbonyl}-amino)-4-oxo-butyric acid], the Ki was 21 to 30 nM in experiment [1] and below 10 nM in experiment [2].
Take `COc1cccc(C(=O)N[C@@H](CC(F)(F)F)C(=O)N2CCC[C@H]2C(=O)N[C@H](C=O)CC(=O)O)c1C` [II-21, (S,S,S)-4-Oxo-(3S)-({1-[4,4,4-trifluoro-(2S)-(2-methyl-3-methoxy-benzoylamino)-butyryl]-pyrrolidine-(2S)-carbonyl}-amino)-butyric acid]: the values for the inhibition constant Ki in experiment [1] and in experiment [2] were 21 to 30 nM and below 10 nM, respectively.
For `CC(=O)Nc1cccc(C(=O)N[C@H](C(=O)N2CCC[C@H]2C(=O)N[C@H](C=O)CC(=O)O)C(C)(C)C)c1Cl` [II-41, (S,S,S)-(3S)-({1-[(2S)-(2-Chloro-3-acetamido-benzoylamino)-3,3-dimethyl-butyryl]-pyrrolidine-(2S)-carbonyl}-amino)-4-oxo-butyric acid], in that order: below 10 nM and below 10 nM.
As for `CC(=O)Nc1ccc(C(=O)N[C@H](C(=O)N2[C@@H]3CC[C@@H](C3)[C@H]2C(=O)N[C@H](C=O)CC(=O)O)C(C)(C)C)cc1Cl` (stereo in doubt) [II-62, (3S)-({2-[(2S)-(4-Acetylamino-3-chloro-benzoylamino)-3,3-dimethyl-butyryl]-2-(1S,4R)-aza-bicyclo[2.2.1]heptane-(3S)-carbonyl}-amino)-4-oxo-butyric acid], the values for the inhibition constant (Ki) in experiment [1] and in experiment [2] were 10 to 20 nM and below 10 nM, respectively.
Regarding `CC(C)[C@H](NC(=O)c1ccccc1C(F)(F)F)C(=O)N1CCC[C@H]1C(=O)N[C@H](C=O)CC(=O)O` [II-27, (S,S,S)-(3S)-({1-[3-Methyl-(2S)-(2-trifluoromethyl-benzoylamino)-butyryl]-pyrrolidine-(2S)-carbonyl}-amino)-4-oxo-butyric acid], the Ki in experiment [1] and in experiment [2] was below 10 nM each time.
As for `COc1cccc(C(=O)N[C@H](C(=O)N2CCC[C@H]2C(=O)N[C@H](C=O)CC(=O)O)C(C)(C)C)c1Cl` [II-30, (S,S,S)-(3S)-({1-[(2S)-(2-Chloro-3-methoxy-benzoylamino)-3,3-dimethyl-butyryl]-pyrrolidine-(2S)-carbonyl}-amino)-4-oxo-butyric acid], the inhibitory constant (Ki) in experiment [1] and in experiment [2] was below 10 nM each time.
As for `CC(C)(C)[C@H](NC(=O)c1ccc(N)c(Cl)c1)C(=O)N1[C@@H]2CC[C@@H](C2)[C@H]1C(=O)N[C@H](C=O)CC(=O)O` (stereo in doubt) [II-65, (3S)-({2-[(2S)-(4-Amino-3-chloro-benzoylamino)-3,3-dimethyl-butyryl]-2-(1S,4R)-aza-bicyclo[2.2.1]heptane-(3S)-carbonyl}-amino)-4-oxo-butyric acid], the Ki in experiment [1] and in experiment [2] was below 10 nM in each case.
On to `CC(C)(C)[C@H](NC(=O)c1cccc(OC(F)(F)F)c1Cl)C(=O)N1CCC[C@H]1C(=O)N[C@H](C=O)CC(=O)O` [II-32, (S,S,S)-(3S)-({1-[(2S)-(2-Chloro-3-trifluoromethoxy-benzoylamino)-3,3-dimethyl-butyryl]-pyrrolidine-(2S)-carbonyl}-amino)-4-oxo-butyric acid], for which the Ki in experiment [1] and in experiment [2] was below 10 nM in each case.
Take `CC(C)C(=O)Nc1ccc(C(=O)N[C@H](C(=O)N2CCC[C@H]2C(=O)N[C@H](C=O)CC(=O)O)C(C)(C)C)c(Cl)c1` [II-49, (S,S,S)-(3S)-({1-[(2S)-(2-chloro-4-isobutyrylamido-benzoylamino)-3,3-dimethyl-butyryl]-pyrrolidine-(2S)-carbonyl}-amino)-4-oxo-butyric acid]: the inhibition constant Ki in experiment [1] and in experiment [2] was below 10 nM throughout.
`Cc1ccccc1C(=O)N[C@H](C(=O)N1CCC[C@H]1C(=O)N[C@H](C=O)CC(=O)O)C(C)C` [II-3, (S,S,S)-(3S)-({1-[3-Methyl-(2S)-(2-methyl-benzoylamino)-butyryl]-pyrrolidine-(2S)-carbonyl}-amino)-4-oxo-butyric acid]: the Ki in experiment [1] and in experiment [2] was below 10 nM in each case.
On to `COc1cccc(C(=O)N[C@H](C(=O)N2CCC[C@H]2C(=O)N[C@H](C=O)CC(=O)O)C(C)C)c1C` [II-1, (S,S,S)-(3S)-({1-[(2S)-(3-Methoxy-2-methyl-benzoylamino)-3-methyl-butyryl]-pyrrolidine-(2S)-carbonyl}-amino)-4-oxo-butyric acid], for which the Ki in experiment [1] and in experiment [2] was below 10 nM in each case.
Consider `COc1ccc(C)c(C(=O)N[C@H](C(=O)N2CCC[C@H]2C(=O)N[C@H](C=O)CC(=O)O)C(C)C)c1` [II-22, (S,S,S)-(3S)-({1-[(2S)-(5-Methoxy-2-methyl-benzoylamino)-3-methyl-butyryl]-pyrrolidine-(2S)-carbonyl}-amino)-4-oxo-butyric acid], for which the Ki in experiment [1] is 21 to 30 nM; in experiment [2], below 10 nM.
For `CC(=O)Nc1ccc(C(=O)N[C@H](C(=O)N2CCC[C@H]2C(=O)N[C@H](C=O)CC(=O)O)C(C)(C)C)c(Cl)c1` [II-43, (S,S,S)-(3S)-({1-[(2S)-(2-chloro-4-acetamido-benzoylamino)-3,3-dimethyl-butyryl]-pyrrolidine-(2S)-carbonyl}-amino)-4-oxo-butyric acid], the Ki in experiment [1] and in experiment [2] was below 10 nM each time.
For the molecule `Cc1cccc(C(=O)N[C@H](C(=O)N2CCC[C@H]2C(=O)N[C@H](C=O)CC(=O)O)C(C)(C)C)c1Cl` [II-34, (S,S,S)-(3S)-({1-[(2S)-(2-Chloro-3-methyl-benzoylamino)-3,3-dimethyl-butyryl]-pyrrolidine-(2S)-carbonyl}-amino)-4-oxo-butyric acid], the Ki in experiment [1] and in experiment [2] was below 10 nM each time.
For `Cc1cccc(C)c1C(=O)N[C@H](C(=O)N1CCC[C@H]1C(=O)N[C@H](C=O)CC(=O)O)C(C)C` [II-14, (S,S,S)-(3S)-({1-[(2S)-(2,6-Methyl-benzoylamino)-3-methyl-butyryl]-pyrrolidine-(2S)-carbonyl}-amino)-4-oxo-butyric acid], the Ki in experiment [1] was below 10 nM; in experiment [2], 10 to 20 nM.
Turning to `CC(C)[C@H](NC(=O)c1cc(Cl)ccc1Cl)C(=O)N1CCC[C@H]1C(=O)N[C@H](C=O)CC(=O)O` [II-12, (S,S,S)-(3S)-({1-[(2S)-(2,5-Dichloro-benzoylamino)-3-methyl-butyryl]-pyrrolidine-(2S)-carbonyl}-amino)-4-oxo-butyric acid], the results for the inhibitory constant (Ki) in experiment [1] and in experiment [2] were 10 to 20 nM and below 10 nM, respectively.
Regarding `CC(=O)Nc1cccc(C(=O)N[C@H](C(=O)N2CCC[C@H]2C(=O)N[C@H](C=O)CC(=O)O)C(C)(C)C)c1C` [II-42, (S,S,S)-(3S)-({1-[(2S)-(2-methyl-3-acetamido-benzoylamino)-3,3-dimethyl-butyryl]-pyrrolidine-(2S)-carbonyl}-amino)-4-oxo-butyric acid], the inhibition constant Ki is 10 to 20 nM in experiment [1] and below 10 nM in experiment [2].
As for `CC(C)(C)[C@H](NC(=O)c1ccccc1Cl)C(=O)N1CCC[C@H]1C(=O)N[C@H](C=O)CC(=O)O` [II-28, (S,S,S)-(3S)-({1-[(2S)-(2-Chloro-benzoylamino)-3,3-dimethyl-butyryl]-pyrrolidine-(2S)-carbonyl}-amino)-4-oxo-butyric acid], the Ki in experiment [1] and in experiment [2] was below 10 nM in each case.
Turning to `CC(C)(C)[C@H](NC(=O)c1ccccc1C(F)(F)F)C(=O)N1CCC[C@H]1C(=O)N[C@H](C=O)CC(=O)O` [II-29, (S,S,S)-(3S)-({1-[3,3-Dimethyl-(2S)-(2-trifluoromethyl-benzoylamino)-butyryl]-pyrrolidine-(2S)-carbonyl}-amino)-4-oxo-butyric acid], the Ki in experiment [1] and in experiment [2] was below 10 nM each time.
As to `CC(C)[C@H](NC(=O)c1ccnc(Cl)c1Cl)C(=O)N1CCC[C@H]1C(=O)N[C@H](C=O)CC(=O)O` [II-18, (S,S,S)-(3S)-[(1-{(2S)-[(2,3-Dichloro-pyridine-4-carbonyl)-amino]-3-methyl-butyryl}-pyrrolidine-(2S)-carbonyl)-amino]-4-oxo-butyric acid], the inhibition constant (Ki) was 10 to 20 nM in experiment [1] and below 10 nM in experiment [2].

By Ki is commonly meant the equilibrium dissociation constant of an inhibitor or competing ligand from its target.
